ChEMBL document CHEMBL3608205, “Eight new cycloartane triterpenoids from Beesia calthifolia with hepatoprotective effects against D-galactosamine induced L02 cell damage” (Bioorg Med Chem Lett, 2015)

Tested on: L02; call rule not given here
Assay: Hepatoprotective activity in human L02 cells assessed as reduction in D-galactosamine-induced cell damage at 0.1 to 1000 uM pre-incubated at 37 degC for 24 hrs before D-galactosamine challenge for 24 hrs by SRB method
Type: functional, cell-based
[1] = Homo sapiens, L02, read-out: EC50

Structure (SMILES)	EC50 (l02)	EC50 [1] [µM]
CC(=O)O[C@H]1[C@H](O)[C@H]([C@]2(C)CC[C@H](C(C)(C)O)O2)[C@@]2(C)CC[C@@]34C[C@@]35CC[C@H](O[C@@H]3OC[C@@H](O)[C@H](O)[C@H]3O)C(C)(C)[C@@H]5CC[C@H]4[C@]12C	Not Active	
CC(C)(O)[C@H]1CC[C@@](C)([C@H]2[C@@H](O)[C@H](O)[C@@]3(C)[C@@H]4CC[C@H]5C(C)(C)[C@@H](O[C@@H]6OC[C@@H](O)[C@H](O)[C@H]6O)CC[C@@]56C[C@@]46C[C@@H](O)[C@]23C)O1 (relative stereo)		61.6
CC(C)(O)[C@H]1CC[C@@](C)([C@H]2[C@@H](O)[C@H](O)[C@@]3(C)[C@@H]4CC[C@H]5C(C)(C)[C@@H](O[C@@H]6OC[C@@H](O)[C@H](O)[C@H]6O)CC[C@@]56C[C@@]46C[C@H](O)[C@]23C)O1		70.8
CC(C)(O)[C@H]1CC[C@@](C)([C@H]2C(=O)[C@H](O)[C@@]3(C)[C@@H]4CC[C@H]5C(C)(C)[C@@H](O)CC[C@@]56C[C@@]46C[C@H](O)[C@]23C)O1 (relative stereo)	Not Active	
CC(C)(O)[C@H]1CC[C@@](C)([C@H]2[C@@H](O)[C@H](O)[C@@]3(C)[C@@H]4CC[C@H]5C(C)(C)[C@@H](O[C@@H]6OC[C@@H](O)[C@H](O)[C@H]6O)CC[C@@]56C[C@@]46C[C@H](O)[C@]23CO)O1 (relative stereo)		48.9
CC(=O)OC[C@]12CC[C@@]34C[C@@]35CC[C@H](O[C@@H]3OC[C@@H](O)[C@H](O)[C@H]3O)C(C)(C)[C@@H]5CC[C@H]4[C@]1(C)[C@@H](O)[C@H](OC(C)=O)[C@@H]2[C@]1(C)CC[C@H](C(C)(C)O)O1	Not Active	
CC(=O)O[C@H]1[C@H](OC(C)=O)[C@@]2(C)[C@@H]3CC[C@H]4C(C)(C)[C@@H](O)CC[C@@]45C[C@@]35C[C@@H](O)[C@]2(C)[C@H]1[C@]1(C)CC[C@H](C(C)(C)O)O1 (mixture of isomers)		10.7
CC(C)(O)[C@H]1CC[C@@](C)([C@H]2C(=O)[C@H](O)[C@@]3(C)[C@@H]4CC[C@H]5C(C)(C)[C@@H](O[C@@H]6OC[C@@H](O)[C@H](O)[C@H]6O)CC[C@@]56C[C@@]46C[C@H](O)[C@]23C)O1 (relative stereo)		78.6
